{"source": "patent US6355799B1", "about": "“Substituted benzene compounds, process for their preparation, and herbicidal and defoliant compositions containing them” (ISK Americas Incorporated, priority 1997, dated 2002)", "type_in_all_cases": "in vivo", "key": {"[1]": {"test_system": "field corn (Zea mays L., var. Dekalb 535, CORN)", "test": "Pre-emerge test, crop safety", "settings": "rated 14 days after application, 0 = no damage, 100 = complete death", "in_short": "(§1)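 Sandy loam pots; pre-emerge: sown 1 d pre-spray, surface-watered after, then bottom-watered. Post-emerge: sown 8–21 d before, 2–3 leaf stage, + 0.25% v/v NIS, bottom-watered. Acetone, 187 l/ha track spray, 15–1000 g ai/ha. 0–100 injury score, day 14.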"}, "[2]": {"test_system": "upland rice (Oryza sp., var. Tebonnet, RICE)", "test": "Pre-emerge test, crop safety", "settings": "rated 14 days after application, 0 = no damage, 100 = complete death", "in_short": "as §1"}, "[3]": {"test_system": "field corn (Zea mays L., var. Dekalb 535, CORN)", "test": "Post-emerge test, crop safety", "settings": "post-emerge, 14 days after application, rating scale 0-100", "in_short": "(§2)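 Visual ratings on a 0-100 scale (0 no damage, 100 all plants dead) were taken at 14 days after treatment. Rates of 15-1000 g ai/ha in acetone, 187 l/ha, were sprayed onto soil one day after planting (pre-emerge) or onto 2-3 leaf plants with 0.25% v/v surfactant (post-emerge).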"}, "[4]": {"test_system": "upland rice (Oryza sp., var. Tebonnet, RICE)", "test": "Post-emerge test, crop safety", "settings": "post-emerge, 14 days after application, rating scale 0-100", "in_short": "as §2"}, "[5]": {"test_system": "large crabgrass (Digitaria sanguinalis, DIGSA)", "test": "Post-emerge test, greenhouse herbicide activity screening", "settings": "post-emerge, 14 days after application, rating scale 0-100", "in_short": "(§3)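 Rating: 0–100 visual injury, 14 DAA. Application: acetone, 187 l/ha, 15–1000 g ai/ha, flat-fan track sprayer with nozzle 40–45 cm above soil or canopy. Post-emerge runs used 0.25% v/v surfactant on 2–3 leaf plants.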"}, "[6]": {"test_system": "green foxtail (Setaria viridis, SETVI)", "test": "Post-emerge test, greenhouse herbicide activity screening", "settings": "post-emerge, 14 days after application, rating scale 0-100", "in_short": "as §3"}, "[7]": {"test_system": "sicklepod (Cassia obtusifolia, CASOB)", "test": "Post-emerge test, greenhouse herbicide activity screening", "settings": "post-emerge, 14 days after application, rating scale 0-100", "in_short": "as §3"}, "[8]": {"test_system": "barnyardgrass (Echinochloa crus-galli, ECHCG)", "test": "Post-emerge test, greenhouse herbicide activity screening", "settings": "post-emerge, 14 days after application, rating scale 0-100", "in_short": "as §3"}, "[9]": {"test_system": "velvetleaf (Abutilon theophrasti, ABUTH)", "test": "Post-emerge test, greenhouse herbicide activity screening", "settings": "post-emerge, 14 days after application, rating scale 0-100", "in_short": "as §3"}, "[10]": {"test_system": "redroot pigweed (Amaranthus retroflexus, AMARE)", "test": "Post-emerge test, greenhouse herbicide activity screening", "settings": "post-emerge, 14 days after application, rating scale 0-100", "in_short": "as §3"}, "[11]": {"test_system": "ivyleaf morningglory (Ipomoea hederacea, IPOHE)", "test": "Post-emerge test, greenhouse herbicide activity screening", "settings": "post-emerge, 14 days after application, rating scale 0-100", "in_short": "as §3"}, "[12]": {"test_system": "johnsongrass (Sorghum halepense, SORHA)", "test": "Post-emerge test, greenhouse herbicide activity screening", "settings": "post-emerge, 14 days after application, rating scale 0-100", "in_short": "as §3"}, "[13]": {"test_system": "lambsquarters (Chenopodium album, CHEAL)", "test": "Post-emerge test, greenhouse herbicide activity screening", "settings": "post-emerge, 14 days after application, rating scale 0-100", "in_short": "as §3"}, "[14]": {"test_system": "redroot pigweed (Amaranthus retroflexus, AMARE)", "test": "Pre-emerge test, greenhouse herbicide activity screening", "settings": "rated 14 days after application, 0 = no damage, 100 = complete death", "in_short": "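Herbicidal damage is scored 0 (none) to 100 (complete plant death) two weeks after a simulated field spray. Rates span 15–1000 g ai/ha, delivered in acetone at 187 l/ha. For post-emergence treatments, plants have 2–3 leaves and the spray carries 0.25% v/v non-ionic surfactant.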"}, "[15]": {"test_system": "large crabgrass (Digitaria sanguinalis, DIGSA)", "test": "Pre-emerge test, greenhouse herbicide activity screening", "settings": "rated 14 days after application, 0 = no damage, 100 = complete death", "in_short": "as §2"}, "[16]": {"test_system": "green foxtail (Setaria viridis, SETVI)", "test": "Pre-emerge test, greenhouse herbicide activity screening", "settings": "rated 14 days after application, 0 = no damage, 100 = complete death", "in_short": "as §2"}, "[17]": {"test_system": "sicklepod (Cassia obtusifolia, CASOB)", "test": "Pre-emerge test, greenhouse herbicide activity screening", "settings": "rated 14 days after application, 0 = no damage, 100 = complete death", "in_short": "as §2"}, "[18]": {"test_system": "barnyardgrass (Echinochloa crus-galli, ECHCG)", "test": "Pre-emerge test, greenhouse herbicide activity screening", "settings": "rated 14 days after application, 0 = no damage, 100 = complete death", "in_short": "as §2"}, "[19]": {"test_system": "velvetleaf (Abutilon theophrasti, ABUTH)", "test": "Pre-emerge test, greenhouse herbicide activity screening", "settings": "rated 14 days after application, 0 = no damage, 100 = complete death", "in_short": "as §2"}, "[20]": {"test_system": "ivyleaf morningglory (Ipomoea hederacea, IPOHE)", "test": "Pre-emerge test, greenhouse herbicide activity screening", "settings": "rated 14 days after application, 0 = no damage, 100 = complete death", "in_short": "as §2"}, "[21]": {"test_system": "johnsongrass (Sorghum halepense, SORHA)", "test": "Pre-emerge test, greenhouse herbicide activity screening", "settings": "rated 14 days after application, 0 = no damage, 100 = complete death", "in_short": "as §2"}, "[22]": {"test_system": "lambsquarters (Chenopodium album, CHEAL)", "test": "Pre-emerge test, greenhouse herbicide activity screening", "settings": "rated 14 days after application, 0 = no damage, 100 = complete death", "in_short": "as §2"}}, "data": [{"smiles": "COc1c(Cl)cc(F)c(-n2c(=O)cc(C(F)(F)F)n(C)c2=O)c1N(C(=O)COc1ccccc1)C(=O)COc1ccccc1", "note": "[2-120]", "values": [{"measurement": "Pre-emerge phytotoxicity rating (0-100), crop damage, CORN", "setting": "[1]; 63 g ai/ha", "result": 0}, {"measurement": "Pre-emerge phytotoxicity rating (0-100), crop damage, CORN", "setting": "[1]; 250 g ai/ha", "result": 90}, {"measurement": "Pre-emerge phytotoxicity rating (0-100), crop damage, RICE", "setting": "[2]; 63 g ai/ha", "result": 80}, {"measurement": "Pre-emerge phytotoxicity rating (0-100), crop damage, RICE", "setting": "[2]; 250 g ai/ha", "result": 95}, {"measurement": "phytotoxicity rating CORN", "setting": "[3]; 63 g ai/ha", "result": 50}, {"measurement": "phytotoxicity rating CORN", "setting": "[3]; 250 g ai/ha", "result": 70}, {"measurement": "phytotoxicity rating RICE", "setting": "[4]; 63 g ai/ha", "result": 50}, {"measurement": "phytotoxicity rating RICE", "setting": "[4]; 250 g ai/ha", "result": 90}, {"measurement": "phytotoxicity rating DIGSA", "setting": "[5]; 63 g ai/ha", "result": 10}, {"measurement": "phytotoxicity rating DIGSA", "setting": "[5]; 250 g ai/ha", "result": 60}, {"measurement": "phytotoxicity rating SETVI", "setting": "[6]; 63 g ai/ha", "result": 20}, {"measurement": "phytotoxicity rating SETVI", "setting": "[6]; 250 g ai/ha", "result": 60}, {"measurement": "phytotoxicity rating CASOB", "setting": "[7]; 63 g ai/ha", "result": 40}, {"measurement": "phytotoxicity rating CASOB", "setting": "[7]; 250 g ai/ha", "result": 30}, {"measurement": "phytotoxicity rating ECHCG", "setting": "[8]; 63 g ai/ha", "result": 40}, {"measurement": "phytotoxicity rating ECHCG", "setting": "[8]; 250 g ai/ha", "result": 30}, {"measurement": "phytotoxicity rating ABUTH", "setting": "[9]; 63 g ai/ha", "result": 100}, {"measurement": "phytotoxicity rating ABUTH", "setting": "[9]; 250 g ai/ha", "result": 100}, {"measurement": "phytotoxicity rating AMARE", "setting": "[10]; 63 g ai/ha", "result": 90}, {"measurement": "phytotoxicity rating AMARE", "setting": "[10]; 250 g ai/ha", "result": 100}, {"measurement": "phytotoxicity rating IPOHE", "setting": "[11]; 63 g ai/ha", "result": 100}, {"measurement": "phytotoxicity rating IPOHE", "setting": "[11]; 250 g ai/ha", "result": 100}, {"measurement": "phytotoxicity rating SORHA", "setting": "[12]; 63 g ai/ha", "result": 40}, {"measurement": "phytotoxicity rating SORHA", "setting": "[12]; 250 g ai/ha", "result": 50}, {"measurement": "phytotoxicity rating CHEAL", "setting": "[13]; 63 g ai/ha", "result": 80}, {"measurement": "phytotoxicity rating CHEAL", "setting": "[13]; 250 g ai/ha", "result": 80}, {"measurement": "Pre-emerge Herbicidal Activity, phytotoxicity rating (0-100), AMARE", "setting": "[14]; 63 g ai/ha", "result": 90}, {"measurement": "Pre-emerge Herbicidal Activity, phytotoxicity rating (0-100), AMARE", "setting": "[14]; 250 g ai/ha", "result": 100}, {"measurement": "Pre-emerge Herbicidal Activity, phytotoxicity rating (0-100), DIGSA", "setting": "[15]; 63 g ai/ha", "result": 80}, {"measurement": "Pre-emerge Herbicidal Activity, phytotoxicity rating (0-100), DIGSA", "setting": "[15]; 250 g ai/ha", "result": 100}, {"measurement": "Pre-emerge Herbicidal Activity, phytotoxicity rating (0-100), SETVI", "setting": "[16]; 63 g ai/ha", "result": 70}, {"measurement": "Pre-emerge Herbicidal Activity, phytotoxicity rating (0-100), SETVI", "setting": "[16]; 250 g ai/ha", "result": 100}, {"measurement": "Pre-emerge Herbicidal Activity, phytotoxicity rating (0-100), CASOB", "setting": "[17]; 63 g ai/ha", "result": 40}, {"measurement": "Pre-emerge Herbicidal Activity, phytotoxicity rating (0-100), CASOB", "setting": "[17]; 250 g ai/ha", "result": 70}, {"measurement": "Pre-emerge Herbicidal Activity, phytotoxicity rating (0-100), ECHCG", "setting": "[18]; 63 g ai/ha", "result": 60}, {"measurement": "Pre-emerge Herbicidal Activity, phytotoxicity rating (0-100), ECHCG", "setting": "[18]; 250 g ai/ha", "result": 90}, {"measurement": "Pre-emerge Herbicidal Activity, phytotoxicity rating (0-100), ABUTH", "setting": "[19]; 63 g ai/ha", "result": 100}, {"measurement": "Pre-emerge Herbicidal Activity, phytotoxicity rating (0-100), ABUTH", "setting": "[19]; 250 g ai/ha", "result": 100}, {"measurement": "Pre-emerge Herbicidal Activity, phytotoxicity rating (0-100), IPOHE", "setting": "[20]; 63 g ai/ha", "result": 50}, {"measurement": "Pre-emerge Herbicidal Activity, phytotoxicity rating (0-100), IPOHE", "setting": "[20]; 250 g ai/ha", "result": 80}, {"measurement": "Pre-emerge Herbicidal Activity, phytotoxicity rating (0-100), SORHA", "setting": "[21]; 63 g ai/ha", "result": 50}, {"measurement": "Pre-emerge Herbicidal Activity, phytotoxicity rating (0-100), SORHA", "setting": "[21]; 250 g ai/ha", "result": 95}, {"measurement": "Pre-emerge Herbicidal Activity, phytotoxicity rating (0-100), CHEAL", "setting": "[22]; 63 g ai/ha", "result": 100}, {"measurement": "Pre-emerge Herbicidal Activity, phytotoxicity rating (0-100), CHEAL", "setting": "[22]; 250 g ai/ha", "result": 100}]}]}
